This is an account of results in patent US10913781B2, “Pepducin design and use” (Tufts Medical Center, Inc., priority 2011, dated 2021).

Peptide text beside a SMILES is read from it. * marks the point of attachment. Palmitoyl = CCCCCCCCCCCCCCCC(=O)*

In experiment [1] the target is T1, PAR2 (Homo sapiens, UniProt P55085). Put plainly: Human neutrophil chemotaxis toward mast cell conditioned media (PAR2 pepducin). Type of experiment: cell-based. Details: SW620 colon adenocarcinoma cells that endogenously express PAR2; endogenous in cells; host or cells: SW620 (in A7 the SW620 cells were additionally stably transfected with PAR1). The conditions noted are these: 1 mM P2pal-18S; 30 min. The protocol:
(A) Mast cells were treated with 2 mg/mL of mast cell degranulating agent 48/80 or 2% 1-carrageenan/4% kaolin. […] (B) P2pal-18S inhibits human neutrophil chemotaxis (n=6) to mast cell media. Human neutrophils were incubated with […] P2pal-18S, or […] mast cell tryptase inhibitor APC-366 and allowed to migrate 30 min toward CM from mast cells. (C) C57BL/6 mice (n=5) were pretreated with the tryptase inhibitor APC-366 (5 mg/kg, s.c.) or vehicle (20% DMSO) and then challenged with intraplantar injection of 1-carrageenan/kaolin. (D) Mast cell conditioned media (30 μL of 1-carrageenan/kaolin stimulated media) was injected into the hindpaws of C57BL/6 mice treated with 10 mg/kg P2pal-18S or vehicle (n=5). Data represent mean±SEM. #, P=0.07, *, P<0.05 and **, P<0.005. (E) Mast cell-deficient mice have a significant reduction in 1-carrageenan/kaolin induced paw edema (8 h time point, n=4-6) as compared to littermate controls. Mast-cell deficient mice or littermate controls with intact mast cells were treated with P2pal-18S (10 mg/kg, s.c.) or vehicle and hind paws challenged with 1-carrageenan/kaolin irritant. Error bars represent mean±SEM. […]
Target sequence in this assay (P55085 26-397): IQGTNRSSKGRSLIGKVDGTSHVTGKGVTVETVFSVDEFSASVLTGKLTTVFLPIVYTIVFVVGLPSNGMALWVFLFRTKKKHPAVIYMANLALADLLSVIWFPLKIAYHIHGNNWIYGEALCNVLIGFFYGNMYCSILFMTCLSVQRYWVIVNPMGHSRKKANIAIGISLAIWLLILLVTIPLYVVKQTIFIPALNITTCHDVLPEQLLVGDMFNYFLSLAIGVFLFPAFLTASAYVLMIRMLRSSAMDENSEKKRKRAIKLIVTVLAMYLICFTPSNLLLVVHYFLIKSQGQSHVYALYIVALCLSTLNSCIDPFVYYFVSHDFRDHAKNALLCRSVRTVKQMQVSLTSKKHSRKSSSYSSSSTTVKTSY

Experiment [2] deals with T1, PAR2. Put plainly: Agonist | (%)^‡. Details: SW620 colon adenocarcinoma cells that endogenously express PAR2; endogenous in cells; host or cells: SW620 (in A7 the SW620 cells were additionally stably transfected with PAR1).
Target sequence in this assay (P55085 26-397 limits assumed): as the sequence (P55085 26-397) above
A further experiment deals with A549 xenografts. Type of experiment: in vivo, mouse. The protocol:
FIG. 13 illustrates that monotherapy with PAR1-i3 pepducins inhibits tumor progression of A549 xenografts. (A) and (B): A549 mice treated with vehicle, P1pal-7, P1pal-i1-11, P1pal-10S, X1/2-i1, X1/2-i3, or Avastin. Each time point represents the mean±SE. (C): Final tumor volume at the completion of the experiment was calculated as a percentage of untreated vehicle control. (D): Serum-starved A549 adenocarcinoma cells were pretreated with P1pal-7, P1pal-10S, P1pal-i1-11, vehicle, or PD98059 and stimulated with thrombin. VEGF production was assessed by enzyme-linked immunosorbent assay. Data are expressed as mean±SD (*P<0.05, **P<0.01).
PAR1 expression level is correlated with reduced survival of patients with NSCLC. To define the relative importance of PAR1 in lung tumor progression, in vivo mouse models were used. […] An A549 lung adenocarcinoma xenograft model in nude mice was used to evaluate monotherapy with P1pal-7, P1pal-10S, P1pal-i1-11, or the VEGF antagonist Avastin.

For a further experiment, the target named is T2, PAR1 (Homo sapiens, UniProt P25116).
T2 sequence (P25116 22-425): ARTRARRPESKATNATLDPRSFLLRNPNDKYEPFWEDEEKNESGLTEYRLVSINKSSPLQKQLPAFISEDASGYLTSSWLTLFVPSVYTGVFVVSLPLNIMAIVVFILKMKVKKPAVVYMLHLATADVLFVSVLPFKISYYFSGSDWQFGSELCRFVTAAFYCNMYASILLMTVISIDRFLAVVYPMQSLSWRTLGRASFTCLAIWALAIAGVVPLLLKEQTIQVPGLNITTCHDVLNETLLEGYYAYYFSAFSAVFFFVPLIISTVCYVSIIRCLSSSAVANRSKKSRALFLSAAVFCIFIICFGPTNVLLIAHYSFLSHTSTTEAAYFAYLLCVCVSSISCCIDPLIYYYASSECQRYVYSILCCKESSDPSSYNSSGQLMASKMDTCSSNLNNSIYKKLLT
Put plainly: ERK1/2 phosphorylation in A549 cells (thrombin or […]), Western blot. Type of experiment: cell-based. Details: endogenous in cells; host or cells: A549, HOP62, H1299, H522, H226, HOP92 lung carcinoma lines. The following applies: A549 cells; pepducin 0.1-3 μM. The procedure:
FIG. 9 illustrates that differential inhibition of PAR1-ERK activation by i3- and i1-derived PAR1 pepducins. (A-C): Western blots of lysates from A549 cells untreated, or treated with thrombin, SLIGKV (SEQ ID NO:29), or AYPGKF (SEQ ID NO:5). Indicated samples were pretreated with various concentrations (0.1 to 3 μmol/L) of P1pal-7, P1pal-10S, or P1pal-i1-11 before stimulation and immunoblotted with anti-phospho-ERK. (D-F): Quantification of the Western blots in (A-C) were conducted by densitometry and results are expressed relative to maximum (fold max) phosphorylation of pERK.
(B): A549 cells stimulated with 10 μM […] over 2 h. A549 cells pretreated with 0.1 μM P1pal-7 and stimulated with 10 μM […] (SEQ ID NO:30) for 5 min. Total ERK was used as a loading control.
Last, there has been a great deal of interest in understanding the mechanism of PAR1-mediated activation of MAP kinase cascade and PAR1-dependent cellular growth and differentiation, proliferation and gene transcription. […] The effects of i1 versus i3 PAR1 pepducins on ERK1/2 activation were examined in the A549 lung adenocarcinoma cell line. […] Inhibition experiments with a range of pepducin concentrations (0.1-3 μM) were conducted. […] The […] (SEQ ID NO:30) peptide gave a rapid and transient ERK1/2 phosphorylation signal that peaked at 5-15 min after stimulation. […] To determine the specificity of the PAR1 pepducin inhibitors, their effects on the closely related PAR2 and PAR4 receptors were also tested.
Background: In western blotting, separated proteins are transferred to a membrane and probed.

On to `CCCCCCCCCCCCCCCC(=O)N[C@@H](CCCNC(=N)N)C(=O)N[C@@H](CO)C(=O)N[C@@H](CO)C(=O)N[C@@H](C)C(=O)N[C@@H](CCSC)C(=O)N[C@@H](CC(=O)O)C(=O)N[C@@H](CCC(=O)O)C(=O)N[C@@H](CC(N)=O)C(=O)N[C@@H](CO)C(=O)N[C@@H](CCC(=O)O)C(=O)N[C@@H](CCCCN)C(=O)N[C@@H](CCCCN)C(=O)N[C@@H](CCCNC(=N)N)C(=O)N[C@@H](CCCCN)C(=O)N[C@@H](CO)C(=O)N[C@@H](C)C(=O)N[C@H](C(=O)N[C@@H](CCCCN)C(N)=O)[C@@H](C)CC` [P2pal-18S], for which the “Inhibition of chemotactic migration toward tryptase-containing mast cell media” value at PAR2 [1] is recorded as “completely inhibited”. In addition, the “Agonist | (%)^‡” value at PAR2 [2] was determined as 3%.
Turning to `CCCCCCCCCCCCCCCC(=O)N[C@H](C(=O)N[C@@H](CC(C)C)C(=O)N[C@@H](CCCCN)C(=O)N[C@@H](CCSC)C(=O)N[C@@H](CCCCN)C(=O)N[C@H](C(=O)N[C@@H](CCCCN)C(=O)N[C@@H](CCCCN)C(=O)N1CCC[C@H]1C(=O)N[C@@H](C)C(=O)N[C@H](C(N)=O)C(C)C)C(C)C)[C@@H](C)CC` [P1pal-i1-11] (Palmitoyl-ILKMKVKKPAV-NH2), the “Early tumor growth blockade” value with A549 xenografts (by day 20) is “significant blockade of tumor growth”. In the experiment with A549 xenografts (monotherapy, nude mice), the “Inhibition of tumor progression/growth (final tumor volume vs vehicle)” value is recorded as “did not inhibit the long-term growth”. For the same molecule, the “Effect on thrombin-induced ERK1/2 phosphorylation” value at PAR1 is listed as “no effect”.
